According to publication PMC6002460, “Pharmacological evaluation of new constituents of “Spice”: synthetic cannabinoids based on indole, indazole, benzimidazole and carbazole scaffolds” (Forensic Toxicology, 2018):
Entries after “also recorded” stand apart in the source; their conditions may differ. Read-outs that look alike come from different tables or passages of the source.

How the values were obtained:
CB2 receptor = settings: membrane potential assay, cited from earlier work
human CB2 receptor [1] = biological target: T1, human CB2 receptor (Homo sapiens, UniProt P34972); assay: biochemical; type: binding; settings: [3H]CP55,940 0.1 nM, CHO cell membranes; read-out: Ki ± SEM Human CB2
T1 construct: expressed in transfected cells; host or cells: CHO cells (membrane preparations)

human GPR18 = biological target: T2, human GPR18 (Homo sapiens, UniProt Q14330); assay: β-Arrestin PathHunter assay, recombinant CHO cells expressing GPR18; type: cell-based; settings: for Human GPR18 % inhibition / Human GPR18 % activation: value in parentheses
T2 construct: host or cells: CHO cells
T2 sequence (Q14330 1-331): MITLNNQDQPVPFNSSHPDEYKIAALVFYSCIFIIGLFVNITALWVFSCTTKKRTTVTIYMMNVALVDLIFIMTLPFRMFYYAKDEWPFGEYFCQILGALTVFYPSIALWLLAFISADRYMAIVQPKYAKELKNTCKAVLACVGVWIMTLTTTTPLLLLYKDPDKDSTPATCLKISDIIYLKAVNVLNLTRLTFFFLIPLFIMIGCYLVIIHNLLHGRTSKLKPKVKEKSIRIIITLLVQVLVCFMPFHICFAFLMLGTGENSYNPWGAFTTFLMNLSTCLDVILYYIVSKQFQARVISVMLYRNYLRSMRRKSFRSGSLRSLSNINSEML
Protocol: (§1) β-Arrestin assays were performed in recombinant CHO cells expressing either the human GPR18 or the human GPR55 as described before using the β-galactosidase enzyme fragment complementation technology (β-arrestin PathHunter™ assay; DiscoverX, Fremont, CA, USA).
(§2) The orphan receptors GPR18 and GPR55 can interact with certain natural and synthetic cannabinoids. […] Therefore, we investigated the new series of indole, indazole, benzimidazole and carbazole-derived structures in β-arrestin assays at GPR18 and GPR55 (Table 2). […] For the lipophilic substitutions, the following rank order of potency was observed: ethyl > methyl > chloro > fluoro. Therefore, it can be concluded that a lipophilic substitution in position 4 of the naphthyl residue was a requirement for GPR55 inhibition.

human CB1 receptor [2] = biological target: T3, human CB1 receptor (Homo sapiens, UniProt P21554); assay: biochemical; type: binding; settings: [3H]CP55,940 0.1 nM, CHO cell membranes; read-out: Ki ± SEM Human CB1
T3 construct: expressed in transfected cells; host or cells: CHO cells (membrane preparations)

human GPR55 = biological target: T4, human GPR55 (Homo sapiens, UniProt Q9Y2T6); assay: β-Arrestin PathHunter assay, recombinant CHO cells expressing GPR55; type: cell-based; settings: for Human GPR55 % activation / Human GPR55 % inhibition: value in parentheses; for Human GPR55 % inhibition: antagonist mode versus LPI 1 µM
T4 construct: host or cells: CHO cells
Protocol: as §1, §2

CB1 receptor [3] = settings: membrane potential assay, cited from earlier work
human CB1 receptor [4] = biological target: T3, human CB1 receptor; assay: cAMP accumulation assay, CHO cells stably expressing CB1; type: cell-based; settings: for EC50: forskolin 10 µM, read-out: EC50 CB1 receptor activation, cAMP accumulation
Protocol: (§3) cAMP accumulation assays were performed also as previously described. Briefly, CHO cells stably expressing the respective human CB receptor subtype CB1 or CB2 were seeded overnight. […] After incubation for 15 min the buffer was removed, and the cells were lyzed. The amount of cAMP was determined in a radioligand binding assay by incubating 50 µL of the cell lysate with 3 nM [^3H]cAMP in the presence of protein preparations from bovine adrenal glands (cAMP binding protein). Bound and unbound radioligand were separated by rapid filtration through GF/B filters, and radioactivity was determined by liquid scintillation counting. To test for antagonistic activity, test compounds were added to Hank’s buffered salt solution (HBSS) containing 10% dimethyl sulfoxide (DMSO), 10 min after the application of Ro-20-1724, and the mixture was incubated for 20 min at 37 °C.
(§4) As a next step, we investigated the compounds in cAMP accumulation assays, to obtain information on their functionality (Fig. 3). CB receptors are Gi protein-coupled and thus reduce the levels of cAMP in the cells upon activation.

human CB2 receptor [5] = biological target: T1, human CB2 receptor; assay: cAMP accumulation assay, CHO cells stably expressing CB2; type: cell-based; settings: for CB2 receptor activation in cAMP accumulation assay (in words): compound at 10 µM, normalized to CP55,940 (1 µM)
Protocol: as §3, §4

CB1 receptor [6] = settings: co-crystallized agonist; cited from earlier work
[7] = agonist mode, read-out: Human GPR18 EC50
[8] = agonist mode, read-out: Human GPR55 EC50
[9] = antagonist mode versus lysophosphatidylinositol (LPI, 1 µM), read-out: Human GPR55 IC50

T3 sequence (P21554 whole entry): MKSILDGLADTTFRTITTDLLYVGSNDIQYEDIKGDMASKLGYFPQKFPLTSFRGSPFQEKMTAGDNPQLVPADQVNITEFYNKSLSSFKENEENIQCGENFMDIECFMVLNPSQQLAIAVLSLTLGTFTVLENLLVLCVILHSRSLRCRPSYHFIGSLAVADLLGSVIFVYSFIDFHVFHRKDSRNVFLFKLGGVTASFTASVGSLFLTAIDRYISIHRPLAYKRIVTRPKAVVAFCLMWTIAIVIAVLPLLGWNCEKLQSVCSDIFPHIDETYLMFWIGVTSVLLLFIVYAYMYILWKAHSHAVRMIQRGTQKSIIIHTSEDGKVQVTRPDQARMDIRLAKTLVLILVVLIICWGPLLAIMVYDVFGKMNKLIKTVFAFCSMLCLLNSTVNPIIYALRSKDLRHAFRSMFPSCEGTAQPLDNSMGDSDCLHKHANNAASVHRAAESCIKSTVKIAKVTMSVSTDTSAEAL
T1 sequence (P34972 whole entry): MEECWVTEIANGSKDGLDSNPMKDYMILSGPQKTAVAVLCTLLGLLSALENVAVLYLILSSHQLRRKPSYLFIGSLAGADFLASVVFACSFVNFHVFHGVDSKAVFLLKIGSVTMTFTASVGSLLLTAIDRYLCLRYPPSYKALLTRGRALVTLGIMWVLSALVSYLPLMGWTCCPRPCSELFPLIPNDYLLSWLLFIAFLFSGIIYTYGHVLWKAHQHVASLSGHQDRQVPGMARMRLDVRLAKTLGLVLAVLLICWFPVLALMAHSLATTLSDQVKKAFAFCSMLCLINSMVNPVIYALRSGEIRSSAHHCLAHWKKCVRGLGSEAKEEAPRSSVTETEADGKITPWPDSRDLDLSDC
T4 sequence (Q9Y2T6 whole entry): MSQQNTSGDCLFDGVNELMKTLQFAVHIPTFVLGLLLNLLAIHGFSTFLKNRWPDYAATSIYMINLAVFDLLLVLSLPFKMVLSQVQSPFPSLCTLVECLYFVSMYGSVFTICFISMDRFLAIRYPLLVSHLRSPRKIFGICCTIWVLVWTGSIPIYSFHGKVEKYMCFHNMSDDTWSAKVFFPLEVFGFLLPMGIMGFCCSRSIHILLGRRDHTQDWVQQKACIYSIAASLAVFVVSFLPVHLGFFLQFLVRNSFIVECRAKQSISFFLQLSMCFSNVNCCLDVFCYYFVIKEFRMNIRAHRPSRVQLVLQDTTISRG

| SMILES | EC50 (CB2 receptor; ref Banister et al. [38]) | Ki (human CB2 receptor [1]) | EC50 (human GPR18) | IC50 (human GPR18) | Human GPR18 % inhibition (human GPR18; antagonist mode) | Ki (human CB1 receptor [2]) | EC50 (human GPR55) | IC50 (human GPR55) | Human GPR55 % activation (human GPR55; agonist mode) | Human GPR55 % inhibition (human GPR55) | EC50 (CB1 receptor [3]; ref Banister et al. [38]) | Human GPR18 % activation (human GPR18; agonist mode) | EC50 (CB2 receptor; ref Banister et al. [42]) | EC50 (CB1 receptor [3]; ref Banister et al. [42]) | also measured |
| --- | --- | --- | --- | --- | --- | --- | --- | --- | --- | --- | --- | --- | --- | --- | --- |
| COC(=O)[C@@H](NC(=O)c1nn(Cc2ccc(F)cc2)c2ccccc12)C(C)C [compound 9, FUB-AMB] | 0.018 µM | 0.000536 ± 0.000115 µM | > 10 µM | > 10 µM | 11% | 0.000387 ± 0.000135 µM | > 10 µM | > 10 µM | 4% | 17% | 0.002 µM |  |  |  |  |
| COC(=O)[C@@H](NC(=O)c1nn(CC2CCCCC2)c2ccccc12)C(C)C [compound 10] | 0.029 µM | 0.000301 ± 9.2e-05 µM | > 10 µM | > 10 µM | > 10 (10%) | 0.000339 ± 7.3e-05 µM | > 10 µM | > 10 µM | 2% | 31% | 0.0051 µM | 19% |  |  |  |
| COC(=O)[C@@H](NC(=O)c1nn(CCCCCF)c2ccccc12)C(C)(C)C [compound 11, 5F-ADB] | 0.0075 µM | 0.00599 ± 0.00247 µM | > 10 µM | > 10 µM |  | 0.0233 ± 0.0102 µM | > 10 µM | > 10 µM | 0% | 6% | 0.00059 µM | > 10 (10%) |  |  | CB1 receptor activation in cAMP accumulation assay (in words) (human CB1 receptor [4]; compound at 10 µM, normalized to CP55,940 (1 µM)): partial activation; CB2 receptor activation in cAMP accumulation assay (in words) (human CB2 receptor [5]): full agonists |
| COC(=O)[C@@H](NC(=O)c1cn(CC2CCCCC2)c2ccccc12)C(C)(C)C [compound 13, MDMB-CHMICA] | 0.071 µM | 0.000354 ± 5e-05 µM | > 10 µM | 14.1 ± 3.1 µM |  | 0.00041 ± 0.000141 µM | > 10 µM | > 10 µM | 5% | 38% | 0.01 µM | 5% |  |  |  |
| COC(=O)[C@@H](NC(=O)c1nn(CC2CCCCC2)c2ccccc12)C(C)(C)C [compound 14] | 0.128 µM | 0.000222 ± 3.4e-05 µM | > 10 µM | ~10 µM | 51% | 0.000135 ± 2.8e-05 µM | > 10 µM | 10.3 ± 1.7 µM |  |  | 0.01 µM | 27% |  |  |  |
| CC(C)[C@H](NC(=O)c1cn(CCCCCF)c2ccccc12)C(N)=O [compound 15, 5F-AB-PICA] |  | 0.089 ± 0.0332 µM | > 10 µM | > 10 µM |  | 0.035 ± 0.0077 µM | > 10 µM | > 10 µM | > 10 (10%) |  |  | 23% | 0.0089 µM | 0.0052 µM |  |
| CC(C)[C@H](NC(=O)c1nn(CCCCCF)c2ccccc12)C(N)=O [compound 16, 5F-AB-PINACA] |  | 0.00377 ± 0.00025 µM | > 10 µM | > 10 µM | > 10 (10%) | 0.00496 ± 0.00137 µM | > 10 µM | > 10 µM | 15% |  |  | 12% | 0.0026 µM | 0.00048 µM |  |
| CC(C)(C)[C@H](NC(=O)c1cn(CCCCCF)c2ccccc12)C(N)=O [compound 21, 5F-ADBICA] |  | 0.00183 ± 0.00011 µM | > 10 µM | > 10 µM |  | 0.00272 ± 0.00035 µM | > 10 µM | > 10 µM | 8% |  |  | 27% | 0.0012 µM | 0.00077 µM |  |
| CC(C)(C)[C@H](NC(=O)c1nn(CCCCCF)c2ccccc12)C(N)=O [compound 23, 5F-ADB-PINACA] |  | 0.000694 ± 7.8e-05 µM | > 10 µM | > 10 µM | 21% | 0.00143 ± 0.00069 µM | > 10 µM | > 10 µM | 18% |  |  | 9% | 0.0021 µM | 0.00024 µM |  |
| O=C(c1ccc2c(c1)c1ccccc1n2CCCCCF)c1cccc2ccccc12 [compound 40, EG-2201] |  | 0.00436 ± 0.00291 µM |  |  | 7% | 0.0224 ± 0.0128 µM |  |  |  | 3% |  | 3% |  |  | Emax (human CB1 receptor [4]; CHO, read-out: efficacy at CB1 compared to maximum response of CP55,940, cAMP accumulation): 94%; functional behaviour at CB1 receptor (in words) (human CB1 receptor [4]; cAMP accumulation): agonistic behavior; EC50 (human CB1 receptor [4]): 0.0156 µM; EC50 (human GPR18; [7]): > 10 µM; IC50 (human GPR18; antagonist mode, read-out: Human GPR18 IC50): > 10 µM; Emax (human CB2 receptor [5]; CHO, read-out: efficacy at CB2 compared to maximum response of CP55,940, cAMP accumulation): 77%; functional behaviour at CB2 receptor (in words) (human CB2 receptor [5]; cAMP accumulation): agonistic behavior; EC50 (human CB2 receptor [5]; forskolin 10 µM, read-out: EC50 CB2 receptor activation, cAMP accumulation): 0.00565 µM; EC50 (human GPR55; [8]): > 10 µM; IC50 (human GPR55; [9]): > 10 µM |
| COC(=O)C(NC(=O)c1ccc2c(c1)c1ccccc1n2CC1CCCCC1)C(C)(C)C (stereo not shown) [compound 41, MDMB-CHMCZCA] |  | 0.00667 ± 0.0014 µM |  |  |  | 0.00575 ± 0.00165 µM |  |  |  | 25% |  |  |  |  | functional behaviour at CB1 receptor (in words) (human CB1 receptor [4]; cAMP accumulation): full efficacy; also recorded: agonist; EC50 (human CB1 receptor [4]): 0.12 µM; EC50 (human GPR18; [7]): > 10 µM; IC50 (human GPR18; extrapolated value, full curve could not be determined due to limited solubility, read-out: Human GPR18 IC50 (extrapolated)): 9.66 ± 1.2 µM; functional behaviour at CB2 receptor (in words) (human CB2 receptor [5]; cAMP accumulation): completely lacked CB2 receptor activation; also recorded: antagonist; CB2 receptor activation in cAMP accumulation assay (in words) (human CB2 receptor [5]): failed to evoke an agonistic response; IC50 (human CB2 receptor [5]; read-out: IC50 inhibition of CB2 receptor activation, cAMP accumulation): 0.807 ± 0.137 µM; EC50 (human GPR55; [8]): > 10 µM; IC50 (human GPR55; [9]): > 10 µM |
| CC1=CC[C@@H]2[C@@H](C1)c1c(O)cc(C(C)(C)CCCCCCBr)cc1OC2(C)C [compound 45, AM11542] |  |  |  |  |  |  |  |  |  |  |  |  |  |  | Ki (CB1 receptor [6]): 0.00011 µM |
